In patent publication US8247211B2, “Glycopeptide antibiotics” (American Cyanamid Company, priority 2001, dated 2012):
In brackets after ≈: the same amount, converted by molar mass.

How the values were obtained:
[1] = test system: Staphylococcus aureus-SMITH (GC 4543); assay: Acute lethal infection in mice (ED50); type: in vivo; conditions: female CD-1 mice, intraperitoneal challenge, intravenous dose 30 min. after infection, 7 day survival ratios
Summary of the method: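 Female CD-1 mice (20 ± 1-2 g) were infected intraperitoneally with enough bacteria, suspended in Trypticase Soy Broth or hog gastric mucin, to kill untreated controls within 24-48 hr. Compound in saline or 5% dextrose was given intravenously 30 min after infection. ED50 came from pooled 7-day survival over 3 tests.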

Enterococcus sp. = assay: In vitro antibacterial evaluation: minimum inhibitory concentration (MIC), broth dilution method; type: cell-based; conditions: 18 hours at 35° C.
Summary of the method: (§1)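 Susceptibility determined by NCCLS-recommended broth dilution (M7-A2), Muller-Hinton II […]. Concentration span 64-0.06 μg/mL, inoculum 5×10^5 CFU/mL. Isolates include strains resistant to methicillin, penicillin and/or vancomycin.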

Streptococcus sp. = assay: as above; type: cell-based; conditions: 18 hours at 35° C.
Summary of the method: as §1

Staphylococcus sp. = assay: as above; type: cell-based; conditions: 18 hours at 35° C.
Summary of the method: as §1

Escherichia coli = assay: as above; type: cell-based; conditions: 18 hours at 35° C.
Summary of the method: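 MIC read as lowest drug level preventing visible growth. Organisms at 5×10^5 CFU/mL were exposed to a 64-0.06 μg/mL dilution series in Muller-Hinton II […] following NCCLS broth dilution standard M7-A2.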

[2] = broth dilution, inoculum 5×10^5 CFU/mL

CC(c1ccccc1)C1NC(=O)CNC(=O)C(CO)NC(=O)C(C(O)C2CNC(=N)N2C2OC(CO)C(O)C(O)C2O)NC(=O)C(C(O)C2CNC(=N)N2)NC(=O)C(Cc2ccc(OC3OC(CO)C(OC4OC(CO)C(OCc5ccc(OCc6ccccc6)cc5)C(O)C4O)C(O)C3O)cc2)NC1=O (stereo not drawn) [Example 231a, Cyclo[glycyl-β-methylphenylalanyl-O-[4-O-[4-O-[4-(phenylmethoxy)benzyl]hexopyranosyl]-hexopyranosyl]tyrosyl-3-(2-iminoimidazolidin-4-yl)seryl-3-(3-hexopyranosyl-2-iminoimidazolidin-4-yl)serylseryl]]
median effective dose (ED50), Staphylococcus aureus-SMITH (GC 4543) [1]: 0.06 mg/kg | MIC Enterococcus avium (GC 4558) (Enterococcus sp.; Enterococcus avium (GC 4558)): 2 µg/mL (≈ 1.34 µM) | MIC Enterococcus faecalis (ATCC 29212) (Enterococcus sp.; Enterococcus faecalis (ATCC 29212)): 2 µg/mL (≈ 1.34 µM) | MIC Enterococcus faecalis (GC 2242) (Enterococcus sp.; Enterococcus faecalis (GC 2242)): 2 to 4 µg/mL | MIC Enterococcus faecalis (GC 2691) (Enterococcus sp.; Enterococcus faecalis (GC 2691)): 2 µg/mL (≈ 1.34 µM) | MIC Enterococcus faecalis (GC 3059) (Enterococcus sp.; Enterococcus faecalis (GC 3059)): 1 to 2 µg/mL | MIC Enterococcus faecalis (GC 4552) (Enterococcus sp.; Enterococcus faecalis (GC 4552)): 4 µg/mL (≈ 2.68 µM) | MIC Enterococcus faecalis (GC 4553) (Enterococcus sp.; Enterococcus faecalis (GC 4553)): 4 µg/mL (≈ 2.68 µM) | MIC Enterococcus faecalis (GC 4554) (Enterococcus sp.; Enterococcus faecalis (GC 4554)): 4 µg/mL (≈ 2.68 µM) | MIC Enterococcus faecalis (GC 6189) (Enterococcus sp.; Enterococcus faecalis (GC 6189)): 1 to 2 µg/mL | MIC Enterococcus faecium (GC 2243) (Enterococcus sp.; Enterococcus faecium (GC 2243)): 2 µg/mL (≈ 1.34 µM) | MIC Enterococcus faecium (GC 4556) (Enterococcus sp.; Enterococcus faecium (GC 4556)): 2 to 4 µg/mL | MIC Enterococcus faecium (GC 4557) (Enterococcus sp.; Enterococcus faecium (GC 4557)): 2 µg/mL (≈ 1.34 µM) | MIC Enterococcus avium (GC 4558) (Enterococcus sp.; [2]): 2 µg/mL (≈ 1.34 µM) | MIC Enterococcus faecalis (ATCC 29212) (Enterococcus sp.; [2]): 2 µg/mL (≈ 1.34 µM) | MIC Enterococcus faecalis (GC 2242) (Enterococcus sp.; [2]): 2 to 4 µg/mL | MIC Enterococcus faecalis (GC 2691) (Enterococcus sp.; [2]): 2 µg/mL (≈ 1.34 µM) | MIC Enterococcus faecalis (GC 3059) (Enterococcus sp.; [2]): 1 to 2 µg/mL | MIC Enterococcus faecalis (GC 4552) (Enterococcus sp.; [2]): 4 µg/mL (≈ 2.68 µM) | MIC Enterococcus faecalis (GC 4553) (Enterococcus sp.; [2]): 4 µg/mL (≈ 2.68 µM) | MIC Enterococcus faecalis (GC 4554) (Enterococcus sp.; [2]): 4 µg/mL (≈ 2.68 µM) | MIC Enterococcus faecalis (GC 6189) (Enterococcus sp.; [2]): 1 to 2 µg/mL | MIC Enterococcus faecium (GC 2243) (Enterococcus sp.; [2]): 2 µg/mL (≈ 1.34 µM) | MIC Enterococcus faecium (GC 4556) (Enterococcus sp.; [2]): 2 to 4 µg/mL | MIC Enterococcus faecium (GC 4557) (Enterococcus sp.; [2]): 2 µg/mL (≈ 1.34 µM) | MIC Streptococcus agalactiae (GC 4564) (Streptococcus sp.; Streptococcus agalactiae (GC 4564)): <0.06 µg/mL | MIC Streptococcus pneumoniae (ATCC 6301) (Streptococcus sp.; Streptococcus pneumoniae (ATCC 6301)): <0.06 µg/mL | MIC Streptococcus pneumoniae (GC 1894) (Streptococcus sp.; Streptococcus pneumoniae (GC 1894)): <0.06 µg/mL | MIC Streptococcus pneumoniae (GC 4565) (Streptococcus sp.; Streptococcus pneumoniae (GC 4565)): <0.06 µg/mL | MIC Streptococcus pyogenes (GC 4563) (Streptococcus sp.; Streptococcus pyogenes (GC 4563)): <0.06 µg/mL | MIC Streptococcus agalactiae (GC 4564) (Streptococcus sp.; [2]): <0.06 µg/mL | MIC Streptococcus pneumoniae (ATCC 6301) (Streptococcus sp.; [2]): <0.06 µg/mL | MIC Streptococcus pneumoniae (GC 1894) (Streptococcus sp.; [2]): <0.06 µg/mL | MIC Streptococcus pneumoniae (GC 4565) (Streptococcus sp.; [2]): <0.06 µg/mL | MIC Streptococcus pyogenes (GC 4563) (Streptococcus sp.; [2]): <0.06 µg/mL | MIC Coagulase Negative Staphylococcus (GC 4547) (Staphylococcus sp.; Coagulase Negative Staphylococcus (GC 4547)): 1 µg/mL (≈ 0.67 µM) | MIC Coagulase Negative Staphylococcus (GC 4551) (Staphylococcus sp.; Coagulase Negative Staphylococcus (GC 4551)): 0.5 µg/mL (≈ 0.335 µM) | MIC Coagulase Negative Staphylococcus (GC 6257) (Staphylococcus sp.; Coagulase Negative Staphylococcus (GC 6257)): 0.5 µg/mL (≈ 0.335 µM) | MIC Staphylococcus aureus (ATCC 29213) (Staphylococcus sp.; Staphylococcus aureus (ATCC 29213)): 1 to 2 µg/mL | MIC Staphylococcus aureus (GC 1131) (Staphylococcus sp.; Staphylococcus aureus (GC 1131)): 1 to 2 µg/mL | MIC Staphylococcus aureus (GC 3051) (Staphylococcus sp.; Staphylococcus aureus (GC 3051)): 1 µg/mL (≈ 0.67 µM) | MIC Staphylococcus aureus (GC 3053) (Staphylococcus sp.; Staphylococcus aureus (GC 3053)): 1 to 2 µg/mL | MIC Staphylococcus aureus (GC 4541) (Staphylococcus sp.; Staphylococcus aureus (GC 4541)): 1 to 2 µg/mL | MIC Staphylococcus aureus (GC 4542) (Staphylococcus sp.; Staphylococcus aureus (GC 4542)): 0.5 to 1 µg/mL | MIC Staphylococcus aureus (GC 4544) (Staphylococcus sp.; Staphylococcus aureus (GC 4544)): 2 to 4 µg/mL | MIC Staphylococcus aureus (GC 4545) (Staphylococcus sp.; Staphylococcus aureus (GC 4545)): 1 to 2 µg/mL | MIC Staphylococcus aureus-SMITH (GC 4543) (Staphylococcus sp.; Staphylococcus aureus-SMITH (GC 4543)): 1 µg/mL (≈ 0.67 µM) | MIC Staphylococcus haemolyticus (GC 4546) (Staphylococcus sp.; Staphylococcus haemolyticus (GC 4546)): 1 µg/mL (≈ 0.67 µM) | MIC Escherichia coli (GC 4559) (Escherichia coli; Escherichia coli (GC 4559)): 32 µg/mL (≈ 21.5 µM) | MIC Escherichia coli (GC 4560) (Escherichia coli; Escherichia coli (GC 4560)): 0.5 to 2 µg/mL
